Test results taken from patent US20260297070A1, “CYCLIC [COMPOUND LEFT OUT] WRN INHIBITORS” (Nimbus Wadjet, Inc., priority 2023, published 2026).

Target: T1, human Werner helicase (WRN-BV08, Uniprot Q14191, amino acids 517-1235 with L1074F point mutation) (Homo sapiens, UniProt Q14191, L1074F)
T1 construct: Uniprot Q14191, amino acids 517-1235 with L1074F point mutation; TEV-cleavable 8×His (C, cleaved yes); made in house; host or cells: Sf9 insect cells (baculovirus)
Assay: WRN (BV08) ADP-Glo Assay
Type: biochemical
Details: 0.15 nM WRN, 5 μM ATP, 0.1 nM DNA duplex, 15 min preincubation, 60 min at 25° C., pH 7.5, 1% DMSO; read-out: ADP-Glo_hWRN_IC50
Outline: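 0.15 nM WRN (aa 517-1235, L1074F, Sf9-expressed, tag cleaved) preincubated 15 min at 25 °C with compound, then 5 μM ATP and 0.1 nM DNA duplex added for 60 min. Buffer: 20 mM Bicine pH 7.5, 1 mM MgCl2, 10 mM KCl, 1 mM TCEP; 1% DMSO. ADP-Glo luminescence; IC50 by 4-parameter fit.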

T1 sequence (Q14191 with tags, fused parts or gaps L1074F limits assumed): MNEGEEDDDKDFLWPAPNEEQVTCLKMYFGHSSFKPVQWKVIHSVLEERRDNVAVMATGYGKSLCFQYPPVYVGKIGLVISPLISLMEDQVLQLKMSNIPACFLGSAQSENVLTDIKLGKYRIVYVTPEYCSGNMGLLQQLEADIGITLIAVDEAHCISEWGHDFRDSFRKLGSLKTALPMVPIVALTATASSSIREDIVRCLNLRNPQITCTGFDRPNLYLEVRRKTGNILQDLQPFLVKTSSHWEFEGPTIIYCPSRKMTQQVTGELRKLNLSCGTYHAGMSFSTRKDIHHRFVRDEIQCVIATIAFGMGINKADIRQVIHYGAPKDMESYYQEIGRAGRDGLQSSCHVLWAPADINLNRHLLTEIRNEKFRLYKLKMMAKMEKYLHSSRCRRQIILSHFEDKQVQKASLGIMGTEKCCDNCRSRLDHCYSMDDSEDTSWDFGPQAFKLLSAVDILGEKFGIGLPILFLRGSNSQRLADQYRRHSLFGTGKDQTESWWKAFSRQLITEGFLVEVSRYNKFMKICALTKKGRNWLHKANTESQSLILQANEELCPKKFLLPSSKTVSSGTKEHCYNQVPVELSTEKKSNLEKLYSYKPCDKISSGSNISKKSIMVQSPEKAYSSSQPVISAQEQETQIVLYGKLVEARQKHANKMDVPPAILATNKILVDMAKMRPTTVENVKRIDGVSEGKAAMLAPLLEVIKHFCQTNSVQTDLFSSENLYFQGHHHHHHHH

Row | Structure (SMILES) | IC50
1 | CC(C)(O)c1cc(CN(C(=O)Cc2ncc(-c3cc(F)c(F)c(F)c3)s2)C2C=CS(=O)(=O)C2)ccn1 (single isomer, unassigned) [I-794] | 0.5 to 5 µM
2 | CC(C)(O)c1csc(CN(C(=O)Cn2cc(-c3cc(F)c(F)c(F)c3)cn2)C2C=CS(=O)(=O)C2)n1 (single isomer, unassigned) [I-798] | < 0.5 µM
3 | CC(C)(O)c1csc(CN(C(=O)Cn2cc(-c3cc(F)c(F)c(F)c3)cn2)C2C=CS(=O)(=O)C2)n1 (single isomer, unassigned) [I-799] | 0.5 to 5 µM
4 | CC(C)(O)c1cc(CN(C(=O)C(c2ccc(-c3ccc(F)c(F)c3)cc2F)n2ccnn2)[C@@H]2C=CS(=O)(=O)C2)ccn1 (single isomer, unassigned) [I-800] | < 0.5 µM
5 | CC(C)(O)c1cc(CN(C(=O)C(c2ccc(-c3ccc(F)c(F)c3)cc2F)n2ccnn2)C2C=CS(=O)(=O)C2)ccn1 (single isomer, unassigned) [I-801, (2R*)-N-[(3R**)-1,1-dioxo-2,3-dihydro-1lambda6-thiophen-3-yl]-N-{[2-(2-hydroxypropan-2-yl)pyridin-4-yl]methyl}-2-(1H-1,2,3-triazol-1-yl)-2-{3,3′,4′-trifluoro-[1,1′-biphenyl]-4-yl}acetamide] | < 0.5 µM
6 | CC(C)(O)c1cc(CN(C(=O)C(c2ccc(-c3ccc(F)c(F)c3)cc2F)n2ccnn2)C2C=CS(=O)(=O)C2)ccn1 (single isomer, unassigned) [I-802, (2R*)-N-[(3R**)-1,1-dioxo-2,3-dihydro-1lambda6-thiophen-3-yl]-N-{[2-(2-hydroxypropan-2-yl)pyridin-4-yl]methyl}-2-(1H-1,2,3-triazol-1-yl)-2-{3,3′,4′-trifluoro-[1,1′-biphenyl]-4-yl}acetamide] | 0.5 to 5 µM
7 | COc1cc(CN(C(=O)C(O/C=C/S(C)(=O)=O)c2ccc(-c3ccc(F)c(F)c3)cc2F)[C@@H]2C=CS(=O)(=O)C2)ccn1 (single isomer, unassigned) [I-803, (2R*)-N-[(3R)-1,1-dioxo-2,3-dihydro-1lambda6-thiophen-3-yl]-2-{[(1E)-2-methanesulfonylethenyl]oxy}-N-[(2-methoxypyridin-4-yl)methyl]-2-{3,3′,4′-trifluoro-[1,1′-biphenyl]-4-yl}acetamide] | > 50 µM
8 | COc1cc(CN(C(=O)C(O/C=C/S(C)(=O)=O)c2ccc(-c3ccc(F)c(F)c3)cc2F)[C@@H]2C=CS(=O)(=O)C2)ccn1 (single isomer, unassigned) [I-804, (2R*)-N-[(3R)-1,1-dioxo-2,3-dihydro-1lambda6-thiophen-3-yl]-2-{[(1E)-2-methanesulfonylethenyl]oxy}-N-[(2-methoxypyridin-4-yl)methyl]-2-{3,3′,4′-trifluoro-[1,1′-biphenyl]-4-yl}acetamide] | < 0.5 µM
9 | CC(C)(O)c1cc(CN(C(=O)C(OCC(F)(F)F)c2ccc(-c3ccc(F)c(F)c3)cc2F)[C@@H]2C=CS(=O)(=O)C2)ccn1 (single isomer, unassigned) [I-805] | < 0.5 µM
10 | CC(C)(O)c1cc(CN(C(=O)C2CCCc3c(-c4cc(F)c(F)c(F)c4)cnn32)[C@@H]2C=CS(=O)(=O)C2)ccn1 (single isomer, unassigned) [I-806] | 0.5 to 5 µM
11 | CC(C)(O)c1cc(CN(C(=O)C(OCCC(F)F)c2ccc(-c3ccc(F)c(F)c3)cc2F)[C@@H]2C=CS(=O)(=O)C2)ccn1 (single isomer, unassigned) [I-812] | < 0.5 µM
12 | CC(C)(O)c1cc(CN(C(=O)C(OCC(F)F)c2ccc(-c3ccc(F)c(F)c3)cc2F)[C@@H]2C=CS(=O)(=O)C2)ccn1 (single isomer, unassigned) [I-813] | < 0.5 µM
13 | CC(C)(O)c1cc(CN(C(=O)C(OCc2ccccc2)c2ccc(-c3ccc(F)c(F)c3)cc2F)[C@@H]2C=CS(=O)(=O)C2)ccn1 (single isomer, unassigned) [I-814] | 0.5 to 5 µM
14 | CC(C)(O)c1cc(CN(C(=O)C(OCC2CC2)c2ccc(-c3ccc(F)c(F)c3)cc2F)[C@@H]2C=CS(=O)(=O)C2)ccn1 (single isomer, unassigned) [I-815] | < 0.5 µM
15 | CC(C)(O)c1cc(CN(C(=O)Cn2nc(-c3cc(F)c(F)c(F)c3)cc2N)C2C=CS(=O)(=O)C2)ccn1 (single isomer, unassigned) [I-821] | 0.5 to 5 µM
